{"source": "patent US20100227921A1", "about": "“AMINO ACID AND PEPTIDE CARBAMATE PRODRUGS OF […] USES THEREOF” (SHIRE LLC, priority 2009, published 2010)", "key": {"[1]": {"experiment": "Comparative bioavailability after oral administration to rats (plasma LC-MS-MS)", "format": "in vivo", "details": "male, Sprague Dawley, rat, plasma, po, 10 mg free base equiv/kg, oral tapentadol 10 mg free base equiv/kg, animal 5 excluded", "protocol": "Test substances, i.e., tapentadol or tapentadol valine carbamate were administered by oral gavage to groups of male Sprague Dawley rats.\n(§1) Blood samples were taken at various times after administration and submitted to analysis for the parent drug and pro-drug using a validated LC-MS-MS assay. Pharmacokinetic parameters derived from the plasma analytical data were determined using Win Nonlin."}, "[2]": {"experiment": "Comparative bioavailability after oral or intravenous administration to monkeys (plasma LC-MS-MS)", "format": "in vivo, cynomolgus monkey", "details": "monkey, below the quantitative limit", "protocol": "Test substances i.e., tapentadol and tapentadol valine carbamate were administered (either intravenously or orally) to a group of five male cynomolgus monkeys in a three way crossover design. The oral doses were given at 1 mg tapentadol base equivalents/kg while the intravenous dose was 0.5 mg/kg\nBlood samples were taken at various times after administration and submitted to analysis for the parent drug and tapentadol valine carbamate using a validated LC-MS-MS assay. Pharmacokinetic parameters derived from the plasma analytical data were determined using Win Nonlin."}, "[3]": {"details": "cited from earlier work"}, "[4]": {"test_system": "guinea pig small intestine myenteric plexus longitudinal muscle", "experiment": "Electrical field stimulation response of isolated guinea pig small intestine smooth muscle (ex vivo)", "details": "Cavia porcellus; isolated guinea pig ileum, EFS 14 Hz, non-cumulative 10 nM-30 μM; read-out: approximate EC50, effect on electrical field stimulation response", "protocol": "Strips of guinea pig small intestine myenteric plexus longitudinal muscle and mounted between platinum ring electrodes. The tissue was stretched to a steady tension of about 1 g and changes in force production were recorded using sensitive transducers.\nThe optimal voltage for stimulation was determined while the tissue was paced with electrical field stimulation (EFS) at 14 Hz, with a pulse width of 0.5 msec (Trains of pulses for 20 seconds, every 50 seconds).\nEFS at optimal voltage continued throughout the protocol (stable responses=“baseline measurement of EFS”).\nThe 3 test conditions employed were as follows:\n(1) Vehicle (deionised water, added at equivalent volume additions to test articles), (2) Tapentadol at 6 concentrations (10 nM, 100 nM, 1 μM, 3 μM, 10 μM & 30 μM) (3) Tapentadol valine carbamate at 6 concentrations (10 nM, 100 nM, 1 μM, 3 μM, 10 μM, & 30 μM).\nFollowing 10 minutes of baseline EFS, first addition of test article or vehicle (deionized water) was performed.\nTest concentrations were added in a non-cumulative manner with PSS washes between each addition. Next, TTX (Na+ channel blocker) was added to confirm EFS responses were elicited via nerve stimulation. EFS was then stopped."}, "[5]": {"experiment": "Comparative in vivo bioavailability study in the dog (oral gavage, plasma LC-MS-MS)", "details": "for half-life / AUC / AUC(0-t) / Cmax / Tmax: Beagle, plasma, po", "protocol": "Test substances (i.e., tapentadol (1 mg/kg) and tapentadol valine carbamate (0.8 mg tapentadol base equivalents/kg)) were administered by oral gavage to a group of five dogs (dog nos. 1, 2, 3, 4 and 5) in a two-way crossover design. The characteristics of the test animals are set out in Table 3.\nas §1"}, "[6]": {"details": "oral tapentadol HCl 1 mg tapentadol base equiv/kg, individual dogs 1-5"}, "[7]": {"details": "oral tapentadol valine carbamate 0.8 mg tapentadol base equiv/kg, individual dogs 1-5"}}, "note": "pEC50: −log10 of the molar value. Where “and” joins values, the source holds several entries; their conditions need not be identical. Equal values may be shown once. Read-outs that look alike come from different tables or passages of the source. Marks after values point to notes of the source that are not given here.", "data": [{"smiles": "CC[C@@H](c1cccc(O)c1)[C@@H](C)CN(C)C", "note": "(racemic) [Tapentadol, (−)-(1R,2R)-3-(3-dimethyl-amino-1-ethyl-2-methyl-propyl)-phenol]", "values": [{"measurement": "AUC(0-t)", "setting": "[1]; mean, read-out: AUCt of tapentadol", "value": 16.4, "unit": "ng·h/mL"}, {"measurement": "Cmax", "setting": "[1]; mean, read-out: Cmax of tapentadol", "value": 4.67, "unit": "ng/mL"}, {"measurement": "Tmax", "setting": "[1]; median, read-out: Tmax of tapentadol", "value": 1, "unit": "h"}, {"measurement": "Plasma levels of tapentadol", "setting": "[2]; after giving the drug (tapentadol)", "value": "< 0.5", "unit": "ng/mL"}, {"measurement": "Plasma levels of tapentadol", "setting": "[2]; after giving the prodrug (tapentadol valine carbamate)", "value": "< 0.5", "unit": "ng/mL"}, {"measurement": "clearance (printed C1)", "setting": "[3]; Terlinden et al. (2007)", "value": "1468 ± 122", "unit": "mL/min"}, {"measurement": "plasma half-life", "setting": "[3]; humans", "value": 4.5, "unit": "h"}, {"measurement": "pEC50", "setting": "[4]", "value": "~6.70"}, {"measurement": "half-life", "setting": "[5]; 0.8 mg/kg, oral tapentadol valine carbamate 0.8 mg tapentadol base equiv/kg, calculated as ln2/mean k, read-out: t½ of tapentadol (converted)", "value": 0.8, "unit": "h"}, {"measurement": "AUC", "setting": "[5]; 0.8 mg/kg, oral tapentadol valine carbamate 0.8 mg tapentadol base equiv/kg, individual dogs 1-5, read-out: AUC of tapentadol", "value": 31.4, "unit": "ng·h/mL"}, {"measurement": "AUC(0-t)", "setting": "[5]; 0.8 mg/kg, oral tapentadol valine carbamate 0.8 mg tapentadol base equiv/kg, individual dogs 1-5, read-out: AUCt of tapentadol", "value": 29.5, "unit": "ng·h/mL"}, {"measurement": "Cmax", "setting": "[5]; 0.8 mg/kg, oral tapentadol valine carbamate 0.8 mg tapentadol base equiv/kg, individual dogs 1-5, read-out: Cmax of tapentadol", "value": 13.7, "unit": "ng/mL"}, {"measurement": "Tmax", "setting": "[5]; 0.8 mg/kg, oral tapentadol valine carbamate 0.8 mg tapentadol base equiv/kg, individual dogs 1-5, read-out: Tmax of tapentadol", "value": 1, "unit": "h"}, {"measurement": "half-life", "setting": "[5]; 0.8 mg/kg, oral tapentadol valine carbamate 0.8 mg tapentadol base equiv/kg, individual dogs 1-5, read-out: t½ of tapentadol (converted)", "value": 0.8, "unit": "h"}, {"measurement": "AUC", "setting": "[5]; 0.8 mg/kg, oral tapentadol valine carbamate 0.8 mg tapentadol base equiv/kg, mean of 5 dogs, read-out: AUC of tapentadol", "value": 34.2, "unit": "ng·h/mL"}, {"measurement": "AUC(0-t)", "setting": "[5]; 0.8 mg/kg, oral tapentadol valine carbamate 0.8 mg tapentadol base equiv/kg, mean of 5 dogs, read-out: AUCt of tapentadol", "value": 32, "unit": "ng·h/mL"}, {"measurement": "Cmax", "setting": "[5]; 0.8 mg/kg, oral tapentadol valine carbamate 0.8 mg tapentadol base equiv/kg, mean of 5 dogs, read-out: Cmax of tapentadol", "value": 14.5, "unit": "ng/mL"}, {"measurement": "Tmax", "setting": "[5]; 0.8 mg/kg, oral tapentadol valine carbamate 0.8 mg tapentadol base equiv/kg, median of 5 dogs, read-out: Tmax of tapentadol", "value": 1, "unit": "h"}, {"measurement": "half-life", "setting": "[5]; 1 mg/kg, oral tapentadol HCl 1 mg tapentadol base equiv/kg, calculated as ln2/mean k, read-out: t½ of tapentadol (converted)", "value": 1.2, "unit": "h"}, {"measurement": "Tmax", "setting": "[5]; 1 mg/kg, oral tapentadol HCl 1 mg tapentadol base equiv/kg, individual dogs 1-5, read-out: Tmax of tapentadol", "value": 0.5, "unit": "h"}, {"measurement": "AUC", "setting": "[5]; 1 mg/kg, oral tapentadol HCl 1 mg tapentadol base equiv/kg, mean of 5 dogs, read-out: AUC of tapentadol", "value": 2.78, "unit": "ng·h/mL"}, {"measurement": "AUC(0-t)", "setting": "[5]; 1 mg/kg, oral tapentadol HCl 1 mg tapentadol base equiv/kg, mean of 5 dogs, read-out: AUCt of tapentadol", "value": 2.56, "unit": "ng·h/mL"}, {"measurement": "Cmax", "setting": "[5]; 1 mg/kg, oral tapentadol HCl 1 mg tapentadol base equiv/kg, mean of 5 dogs, read-out: Cmax of tapentadol", "value": 1.45, "unit": "ng/mL"}, {"measurement": "Tmax", "setting": "[5]; 1 mg/kg, oral tapentadol HCl 1 mg tapentadol base equiv/kg, median of 5 dogs, read-out: Tmax of tapentadol", "value": 0.5, "unit": "h"}, {"measurement": "AUC of tapentadol", "setting": "[5]; [6]", "value": "1.96 ng·h/mL and 2.02 ng·h/mL and 3.38 ng·h/mL and 4.53 ng·h/mL and 1.99 ng·h/mL"}, {"measurement": "AUCt of tapentadol", "setting": "[5]; [6]", "value": "1.84 ng·h/mL and 1.88 ng·h/mL and 2.68 ng·h/mL and 4.48 ng·h/mL and 1.92 ng·h/mL"}, {"measurement": "Cmax of tapentadol", "setting": "[5]; [6]", "value": "0.75 ng/mL and 1.77 ng/mL and 1.27 ng/mL and 2.39 ng/mL and 1.08 ng/mL"}, {"measurement": "T>50%Cmax of tapentadol", "setting": "[5]; [6]", "value": "1.5 h (2×) and 0 h and 0.5 h (2×)"}, {"measurement": "T>50%Cmax of tapentadol", "setting": "[5]; oral tapentadol HCl 1 mg tapentadol base equiv/kg, median of 5 dogs", "value": "0.5^a h"}, {"measurement": "AUC of tapentadol", "setting": "[5]; [7]", "value": "25.5 ng·h/mL and 39.9 ng·h/mL and 29.1 ng·h/mL and 45.0 ng·h/mL"}, {"measurement": "AUCt of tapentadol", "setting": "[5]; [7]", "value": "22.8 ng·h/mL and 36.4 ng·h/mL and 28.3 ng·h/mL and 43.2 ng·h/mL"}, {"measurement": "Cmax of tapentadol", "setting": "[5]; [7]", "value": "11.1 ng/mL and 17.0 ng/mL and 11.7 ng/mL and 19.3 ng/mL"}, {"measurement": "T>50%Cmax of tapentadol", "setting": "[5]; [7]", "value": "1 h (3×) and 1.5 h (2×)"}, {"measurement": "Tmax of tapentadol", "setting": "[5]; [7]", "value": 2, "unit": "h"}, {"measurement": "t½ of tapentadol", "setting": "[5]; [7]", "value": "1.1 h and 0.9 h and 1.0 h and 0.6 h"}, {"measurement": "T>50%Cmax of tapentadol", "setting": "[5]; oral tapentadol valine carbamate 0.8 mg tapentadol base equiv/kg, median of 5 dogs", "value": "1^a h"}]}]}
